Data from US7312239B2, “Medicament for prevention and/or therapy of arterial wall disorder” (Mitsubishi Pharma Corporation, priority 2002, dated 2007).

Columns and labels:
[1] = tested on: abdominal aorta of rabbits injured by use of a balloon; assay: Balloon injury of abdominal aorta in cholesterol-fed rabbits, ratio of new intima to new media (I/M); type: in vivo, Japanese white rabbits; details: rabbits on 1% cholesterol food, 10 mg/kg intravenous injection twice per day from the day before injury, 10th week, p=0.018 vs control 0.475±0.136
Procedure: (§1) Japanese white rabbits were divided into two groups, an edaravone group (n=6) and a control group (n=6), and they were fed with 1% cholesterol food for 10 weeks. On the 8th week, the rabbits of both groups were injured such that their abdominal aorta was damaged by use of a balloon. For the edaravone group, edaravone was administered every day (10 mg/kg, intravenous injection twice per day) from the day before the balloon injury. For the control group, a physiological salt solution was administered. On the 10th week, the rabbits were sacrificed, and their abdominal aorta was excised. The ratio of a new intima to a new media (the ratio of the intimal area of a blood vessel section to the medial area thereof; I/M) was measured as follows. First, total 5 portions were cut out of the abdominal aorta into round slices each having a width of 5 mm, and HE-stained samples were prepared therefrom. A new intimal area and a new medial area were analyzed with computer software, and the mean value of the 5 portions was obtained, followed by calculation of I/M.

[2] = Total cholesterol, triglyceride and lipid peroxide in serum of balloon-injured cholesterol-fed rabbits; type: in vivo, Japanese white rabbits; details: 10 mg/kg i.v. twice per day, before cholesterol food, at balloon injury, at sacrifice, vs control group
Procedure: as §1
Moreover, total cholesterol (TC), triglyceride (TG) and lipid peroxide (LPO) in serum were measured, before the rabbits were fed with cholesterol food, when they were injured by use of a balloon, and when they were sacrificed.

[3] = tested on: right common carotid artery injured by abrasion with a 2F balloon; assay: Balloon injury of right common carotid artery in ovary-eliminated rats, I/M; type: in vivo; details: ovary elimination (OVX) female SD rats, 30 mg/kg/day oral for 3 days after operation, 14th day; p<0.01 vs OVX+V 1.36±0.12
Procedure: (§2) 11′-week-old female SD rats were divided into two groups, an ovary elimination group (OVX) and an ovary non-elimination group (INT). To the OVX group, edaravone (Ed) (30 mg/kg/day) (n=8) or vehicle (V) (n=7) was orally administered, and to the INT group (n=4), vehicle (V) was administered. The vascular endothelium of the right common carotid artery was injured by abrasion with a 2F balloon. The above drugs were administered for 3 days immediately after the above operation. On the 14th day, the blood vessel was excised, and the ratio of a new intima to a new media (I/M) was calculated.

[4] = tested on: right common carotid artery injured by abrasion with a 2F balloon; assay: Balloon injury of carotid artery in OLETF rats with type II diabetes, I/M; type: in vivo; details: male OLETF rats with type II diabetes, administered from 3 days before to 14th day after operation; p<0.01 vs vehicle 1.12±0.15
Procedure: as §2, with “calculated. 30-week-old male OLETF rats with type II diabetes were divided into two groups, an edaravone (Ed) administration group (n=4) and a vehicle (V) administration group (n=4). The above-described blood vessel injury was carried out on them. The above drugs were continuously administered from 3 days before the above operation to the 14th day after the above operation. Thereafter, the ratio of a new intima to a new media (I/M) was calculated.” for “calculated.”

## CC1=NN(c2ccccc2)C(=O)C1 [edaravone, 3-methyl-1-phenyl-2-pyrazolin-5-one]
[1]
  ratio of a new intima to a new media (I/M): 0.344±0.055
[2]
  lipid peroxide (LPO) in serum: not significantly different
  total cholesterol (TC) in serum: not significantly different
  triglyceride (TG) in serum: not significantly different
[3]
  ratio of a new intima to a new media (I/M): 0.82±0.09
[4]
  ratio of a new intima to a new media (I/M): 0.55±0.02
